In patent US7241579B2, “Method of screening for GPR40 ligands” (SmithKline Beecham Corporation, priority 2000, dated 2007):
Read-outs that look alike come from different tables or passages of the source.

Key:
Assay type in all cases: cell-based
human GPR40 [1] = molecular target: T1, human GPR40 (Homo sapiens, UniProt O14842); test: GAL4/Elk-1-luciferase reporter in CHO clones transfected with human GPR40, with and without pertussis toxin; parameters: expressed in transfected cells
Text: (§1) To further test the coupling of GPR40 to Gαi/Gαq a Gal4/Elk-1 reporter was used. A stable, clonal reporter line was created by transfecting CHO cells with a plasmid that contains an expression construct for GAL4/Elk-1 and a GAL4-luciferase reporter construct. A similar reporter system can now be purchased from Stratagene (under the trademark […]®). An expression construct for human GPR40 which contains a G418 resistance construct was transfected into the host CHO GAL4/Elk-1 reporter cell line (10 ug plasmid DNA pCR3-GPR40) via electroporation. The cell lines were selected for with 500 ug/mL G418 until all cells in the control were dead and clones were then picked. The Gal4/Elk-1 reporter can be activated through Gq or Gi. To confirm coupling via Gi, cells were treated with pertussis toxin treatment which ADP-ribosylates Gαi preventing its interaction with receptors (Bokoch et al., J. Biol. Chem 258:2072 (1983)). Pertussis toxin has no known effect on Gαq.
(§2) Host cells and those transfected with the GPR40 construct were plated in a 96-well tissue culture plate at 2000 cells/well in DMEM/F12 supplemented with 5% FBS. After 48 hours at 37° C. at 5% CO2, the cells were placed in serum-free DMEM/F12 in the presence or absence of 1 ug/ml pertussis toxin. After 16 hours at 37° C., 5% CO2 the host cells were treated with: lysophosphatidic acid (oleoyl) (LPA) which couples through GαI to activate MAP kinase (Hordijk et al., J. Biol. Chem. 269: 645 (1994)); thrombin which couples through Gαi and Gαq (Hung et al., J. Biol. Chem. 267:20831 (1992)); or 5,8,11-Eicosatriynoic acid (a GPR40 ligand), at the concentrations indicated. The host cells containing the GPR40 construct were stimulated with or 5,8,11-Eicosatriynoic acid at the concentrations indicated. Controls for lysophosphatidic acid contained 0.5% DMSO; controls for […] contained 0.05% ethanol. Luciferase activity was assayed 4 hours after treatment using a luciferase reporter gene assay kit available under the trademark LUCLITE®, as per manufacturers instructions (Packard Bioscience).

human GPR40 [2] = molecular target: T1, human GPR40; test: FLIPR intracellular calcium response in HEK-293 cells transiently expressing GPR40; parameters: expressed in transfected cells; host or cells: HEK-293 (transient); conditions: GPR40 stimulation
Text: The Fluorometric Imaging Plate Reader (FLIPR™, Molecular Devices, UK) measures intracellular fluorescense in multi-well microplates. Where a GPCR couples to a calcium signalling pathway, the FLIPR system can be used with cells expressing the G-protein coupled receptor and containing calcium-sensitive fluorescent dyes, to monitor the intracellular calcium flux that occurs after activation of the G-coupled receptor. See, e.g., Kirk et al., J. Biomolecular Screening, 1:75 (1996).
(§3) The assays utilized a G-protein cocktail (+GPC) that contained chimeric and promiscuous G-proteins, as is known in the art of screening orphan G-protein coupled receptors.

[3] = test system: CHO cells expressing CRE-luciferase with no receptor; test: CRE-luciferase reporter in CHO cells containing reporter only (no receptor); conditions: 4 hours of treatment
Procedure: (§4) Specific coupling was determined in mammalian cells using transient expression of a CRE-luciferase reporter for Gαs and stable cell-lines containing Gal4/ELK-1-luciferase reporter for Gαq/Gαi. Wild-type CHO cells were co-transfected with 3×-CRE-luciferase reporter vector and various amounts of an expression vector for GPR40. The control cells were transfected with reporter vector only. The reporter gene plasmids were produced in house but similar vectors can be purchased from Stratagene ([…]®). Cells were plated in a 24 well tissue culture plate at 1×10^4 cells/well in DMEM/F12 supplemented with 5% FBS. After 72 hours at 37° C., 5% CO2, the cells were transfected using the liposomal transfection reagent sold under the trademark LIPOFECTAME® and with the following combinations of plasmids: • A-3×-CRE-Luc • B-3×-CRE-Luc+CMV-GPR40 • C-3×-CRE-Luc+CMV-Gs coupled receptor The concentration of reporter plasmid for all wells was 0.15 μg/well. Concentrations of receptor plasmids were 0.5, 1.0, 5.0, 10.0 ng/well. After 24 hrs Cells containing 1 ng/well of receptor plasmid or no DNA control and CRE-Luc reporter were treated with fatty acid or the calcitonin which is known to act through a Gs-coupled receptor (Chakraborty, Science 251: 1078 (1991)) at concentrations indicated. […]

[4] = test system: CHO cells containing GAL4/Elk1-luciferase reporter constructs; test: GAL4/Elk-1-luciferase reporter in host CHO cells (reporter only), with and without pertussis toxin; conditions: for agonist-stimulated reporter activity after pertussis toxin treatment: 1 ug/ml pertussis toxin 16 hours
Text: as §1, §2

human GPR40 [5] = molecular target: T1, human GPR40; test: CRE-luciferase reporter in CHO cells co-transfected with GPR40 expression vector; parameters: expressed in transfected cells; conditions: CHO cells containing GPR40 and CRE-Luc reporter, 4 hours of treatment
Procedure: as §4

HLTEX11 = test: FLIPR calcium response in HEK-293 cells transiently expressing the 7TM receptor HLTEX11; conditions: HEK-293 cells transiently expressing HLTEX11, + G-protein cocktail
Text: as §3

PGRW = test: FLIPR calcium response in HEK-293 cells transiently expressing the 7TM receptor PGRW (GPRW); conditions: HEK-293 cells transiently expressing PGRW, + G-protein cocktail
Text: as §3

[6] = FLIPR, Additional Fatty Acid Compounds, read-out: EC50 uM
[7] = FLIPR, Additional Fatty Acid Compounds, read-out: EC50
[8] = FLIPR, first of up to 3 experiments, read-out: Mean pEC50 (converted)
[9] = FLIPR, second of up to 3 experiments, read-out: Mean pEC50 (converted)
[10] = FLIPR, third experiment, read-out: Mean pEC50 (converted)
[11] = Mean pEC50 of 3 expts, FLIPR, overall mean (n = 1 or 2 where stated)
[12] = Mean pEC50, FLIPR, first of up to 3 experiments
[13] = Mean pEC50, FLIPR, second of up to 3 experiments
[14] = EC50 uM, FLIPR, Additional Fatty Acid Compounds
[15] = EC50 (M), FLIPR, Additional Fatty Acid Compounds

T1 sequence (O14842 whole entry, the tested form may be a part): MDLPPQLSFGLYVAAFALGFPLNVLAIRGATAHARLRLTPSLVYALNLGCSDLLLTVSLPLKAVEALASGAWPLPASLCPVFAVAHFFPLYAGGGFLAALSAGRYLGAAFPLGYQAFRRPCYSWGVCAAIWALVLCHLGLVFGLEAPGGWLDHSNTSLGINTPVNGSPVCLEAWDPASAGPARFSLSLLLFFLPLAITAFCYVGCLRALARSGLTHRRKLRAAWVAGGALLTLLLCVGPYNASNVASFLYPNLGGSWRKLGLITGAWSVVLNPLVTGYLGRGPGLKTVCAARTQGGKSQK

Row | Molecule | EC50 (human GPR40 [2]; [6]) [µM] | EC50 (human GPR40 [2]; [7]) [µM] | EC50 (human GPR40 [2]; [8]) [µM] | EC50 (human GPR40 [2]; [9]) [µM] | EC50 (human GPR40 [2]; [10]) [µM] | EC50 (human GPR40 [2]; [11]) [µM] | further results
1 | CCCCCCCCC#CCC#CCC#CCCCC(=O)O [5,8,11-Eicosatriynoic acid] | 1.7 | 1.7 | – | – | – | – | agonist-stimulated luciferase activity after pertussis toxin treatment (human GPR40 [1]; cells containing GPR40, 1 ug/ml pertussis toxin 16 hours): not inhibited; luciferase activity compared to basal (GAL4/Elk-1 reporter) (human GPR40 [1]; cells containing GPR40, 4 hours after treatment): increased luciferase activity; luciferase production (CRE-luciferase) [3]: no effect; luciferase production (GAL4/Elk-1 reporter) ([4]; 4 hours after treatment): no effect; luciferase production (CRE-luciferase) (human GPR40 [5]): no effect
2 | C#CCCCCCCCCCCCCCCCC(=O)O [17-Octadecynoic acid] | 7.6 | 7.58 | – | – | – | – | –
3 | CCCCC/C=C\C/C=C\C/C=C\C/C=C\CCCC(=O)O [Arachidonic acid] | 9.1 | 9.12 | 18.2 | 12.9 | 7.24 | 12 | –
4 | CCCCCCCCCCCCCCCCCCCCCC(=O)O [Behenic acid] | – | – | – | 49 | – | 50.1 | EC50 (human GPR40 [2]; [12]): 51.3 µM
5 | CCCCCCCCCC(=O)O [Capric acid] | – | – | 18.2 | 11 | 14.5 | 14.1 | –
6 | CCCCCCCC(=O)O [Caprylic acid] | – | – | – | – | – | 38 | EC50 (human GPR40 [2]; [12]): 56.2 µM; EC50 (human GPR40 [2]; [13]): 26.3 µM
7 | CCCCC/C=C\C/C=C\C/C=C\CCCCCCC(=O)O [Dihomo-gamma-linolenic acid] | 7.2 | 7.24 | – | – | – | – | –
8 | CC/C=C\C/C=C\C/C=C\C/C=C\C/C=C\CCCCCC(=O)O [Docosa-7Z,10Z,13Z,16Z,19Z-pentaenoic acid] | 4.7 | 4.68 | – | – | – | – | –
9 | CC/C=C\C/C=C\C/C=C\CCCCCCCCCCCC(=O)O [Docosa-13Z,16Z,19Z-trienoic acid] | 6.8 | 6.76 | – | – | – | – | –
10 | CC/C=C\C/C=C\C/C=C\C/C=C\C/C=C\CCCC(=O)O [Eicosa-5Z,8Z,11Z,14Z,17Z-pentaenoic acid] | 6.8 | 6.76 | – | – | – | – | –
11 | CCCCCCCCCCC/C=C\C/C=C\CCCC(=O)O [Eicosa-5Z,8Z-dienoic acid] | 7.8 | 7.76 | – | – | – | – | –
12 | CC/C=C\C/C=C\C/C=C\CCCCCCCCCC(=O)O [Eicosa-11Z,14Z,17Z-trienoic acid] | 11.2 | 11.2 | – | – | – | – | –
13 | CCCCC/C=C\C/C=C\CCCCCCCCCC(=O)O [Eicosa-11Z,14Z-dienoic acid] | 10.7 | 10.7 | – | – | – | – | –
14 | CCCCCCCC/C=C/CCCCCCCC(=O)O [Elaidic acid] | – | – | – | – | – | – | FLIPR calcium response (HLTEX11): No response was detected; FLIPR calcium response (PGRW): No response was detected
15 | CCCCCCCCCCCCCCCCCCCCC(=O)O [Heneicosanoic acid] | – | – | 35.5 | 29.5 | – | 32.4 | –
16 | CCCCCCCCCCCCCCCCC(=O)O [Heptadecanoic acid] | – | – | 13.8 | 10.2 | 7.76 | 10.2 | –

Row | Molecule | EC50 (human GPR40 [2]; [6]) [µM] | EC50 (human GPR40 [2]; [7]) [µM] | EC50 (human GPR40 [2]; [8]) [µM] | EC50 (human GPR40 [2]; [9]) [µM] | EC50 (human GPR40 [2]; [10]) [µM] | EC50 (human GPR40 [2]; [11]) [µM] | further results
17 | CCCCCCC(=O)O [Heptanoic acid] | – | – | 46.8 | 60.3 | – | 52.5 | –
18 | CCCCCCCC/C=C\CCCCCCCC(=O)OC[C@@H](O)COP(=O)(O)O [LPA, lysophosphatidic acid (oleoyl)] | – | – | – | – | – | – | agonist-stimulated reporter activity after pertussis toxin treatment [4]: completely abolished
19 | CCCCCCCCCCCC(=O)O [Lauric acid] | – | – | 17.8 | 11.7 | 8.51 | 12 | –
20 | CCCCC/C=C\C/C=C\CCCCCCCC(=O)O [Linoleic acid] | – | – | – | – | – | 18.6 | EC50 (human GPR40 [2]; [14]): 9.5 µM; EC50 (human GPR40 [2]; [15]): 9.54 µM; EC50 (human GPR40 [2]; [12]): 16.6 µM; EC50 (human GPR40 [2]; [13]): 20.9 µM
21 | CC/C=C\C/C=C\C/C=C\CCCCCCCC(=O)O [Linolenic acid] | – | – | – | – | – | 12.6 | EC50 (human GPR40 [2]; [14]): 5.5 µM; EC50 (human GPR40 [2]; [15]): 5.5 µM; EC50 (human GPR40 [2]; [12]): 11.7 µM; EC50 (human GPR40 [2]; [13]): 21.9 µM; EC50 (human GPR40 [2]; Mean pEC50, FLIPR, third experiment): 7.59 µM
22 | CCCCCCCCCCCCCCCCCCC(=O)O [Nonadecanoic acid] | – | – | 26.3 | 34.7 | – | 30.2 | –
23 | CCCCCCCCC(=O)O [Nonanoic acid] | – | – | – | – | – | 39.8 | EC50 (human GPR40 [2]; [12]): 69.2 µM; EC50 (human GPR40 [2]; [13]): 23.4 µM
24 | CCCCCCCCCCCCCCCC(=O)O [Palmitic acid] | – | – | 8.32 | 3.09 | 5.01 | 5.01 | –
25 | CCCCCC/C=C\CCCCCCCC(=O)O [Palmitoleic acid] | – | – | 15.1 | 15.5 | 11 | 13.8 | –
26 | CCCCCCCCCCCCCCC(=O)O [Pentadeconoic acid] | – | – | 10.7 | 4.37 | 6.17 | 6.61 | –
27 | CCCCCCCCCCCCCCCCCC(=O)O [Stearic acid] | – | – | 20 | 16.6 | 14.1 | 16.6 | –
28 | CCCCCCCCCCC(=O)O [Undecanoic acid] | – | – | 25.1 | 21.9 | 14.8 | 20 | –
29 | CCC=CCC=CCC=CCC=CCC=CC/C=C\CCC(=O)O [cis-4,7,10,13,16,19-Docosahexaenoic acid] | 1.6 | 1.62 | 6.61 | 2.95 | 3.98 | 4.27 | –
30 | calcitonin | – | – | – | – | – | – | luciferase production (CRE-luciferase) [3]: increase in luciferase production; luciferase production (CRE-luciferase) (human GPR40 [5]): increase in luciferase production
31 | pertussis toxin | – | – | – | – | – | – | decrease of basal reporter activity following pertussis toxin treatment (human GPR40 [1]; GPR40 clones, 1 ug/ml pertussis toxin): up to 70%
32 | thrombin | – | – | – | – | – | – | agonist-stimulated reporter activity after pertussis toxin treatment [4]: only partially attenuated
